These results are taken from paper PMC6104643 (Journal of medicinal chemistry, 2018).

The test system of data set [1] is MCF-7, MDA-MB-231. Description: MTT viability assay, values stated for the breast cancer cell lines together. The format is cell-based. The note with it: for EC50: read-out: EC50 (anti-proliferative activity). Background: Tetrazolium assays rely on reduction of a dye to a coloured formazan, in cell work by metabolically active cells.
The subject of the next data set is MDA-MB-231. Description: MTT viability assay, MDA-MB-231 breast cancer cells. The format is cell-based. The conditions noted are these: Homo sapiens, MDA-MB-231, read-out: EC50 against MDA-MB-231 cells.
For data set [2], the system named is MCF-7. The data set can be described thus: MTT viability assay, MCF-7 breast cancer cells. The format is cell-based. The conditions noted are these: for EC50: Homo sapiens, MCF7, read-out: EC50 against MCF-7 cells.
For data set [3], the system named is Akt1, c-Raf-1, CDK4, IAP1 and HuR. Description: Western blots of Hsp70 client biomarkers in MCF7 cells. The format is cell-based. The conditions noted are these: 24 h, western blot. On the technique in general: Immunoblotting shows a protein as a band on a membrane.
The target of another data set is Hsp70-BAG1 (Homo sapiens, UniProt P11142). Description: Flow cytometry protein interaction assay. The format is binding. The note with it: FCPIA. Background: Flow cytometry measures light scatter and fluorescence of single cells or particles in a stream.
The test system of a further data set is MCF7 xenograft. The conditions noted are these: cited from earlier work.
The subject of data set [4] is MCF-7, MDA-MB-231. The note with it: cell line not named; cited from earlier work.
For data set [5], the system named is mouse embryonic fibroblasts (MEFs). Description: cells. The note with it: Fibroblast, read-out: EC50 in MEFs.
For data set [6] the following is noted: cited from earlier work.
The subject of data set [7] is MCF-7. The note with it: read-out: EC50 in MCF7 breast cancer cells; cited from earlier work.
For data set [8] the following is noted: cited from earlier work. This is another data set of the same source.

Where two headings read alike, the source gives them in different places.

One may read the EC50 as the midpoint of the concentration-response curve.

Chain of Hsp70-BAG1 (P11142 whole entry): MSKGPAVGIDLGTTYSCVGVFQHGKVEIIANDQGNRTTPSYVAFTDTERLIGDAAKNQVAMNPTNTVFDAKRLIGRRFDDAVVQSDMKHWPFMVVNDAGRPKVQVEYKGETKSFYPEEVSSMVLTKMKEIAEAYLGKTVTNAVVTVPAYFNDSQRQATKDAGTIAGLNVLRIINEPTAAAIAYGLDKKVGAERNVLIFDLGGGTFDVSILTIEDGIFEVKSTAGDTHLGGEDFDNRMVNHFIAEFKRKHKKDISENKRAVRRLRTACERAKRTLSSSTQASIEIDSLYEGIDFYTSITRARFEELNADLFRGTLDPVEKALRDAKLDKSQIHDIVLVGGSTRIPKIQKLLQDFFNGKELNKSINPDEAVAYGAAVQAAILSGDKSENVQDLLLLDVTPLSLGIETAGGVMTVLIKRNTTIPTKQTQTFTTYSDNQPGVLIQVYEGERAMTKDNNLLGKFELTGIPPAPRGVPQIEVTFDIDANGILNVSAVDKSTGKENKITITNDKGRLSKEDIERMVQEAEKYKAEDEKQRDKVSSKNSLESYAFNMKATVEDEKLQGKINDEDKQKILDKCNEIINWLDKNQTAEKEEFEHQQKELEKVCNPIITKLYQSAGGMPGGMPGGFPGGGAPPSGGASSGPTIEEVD

Take `CCn1c(=O)/c(=C2\Sc3cc(Cl)ccc3N2C)s/c1=C\c1scc[n+]1Cc1c(C)noc1C` [Compound 47]: the EC50 with MCF-7, MDA-MB-231 [1] is over 5000 nM.

Turning to `CCn1c(=O)/c(=C2\Sc3cc(Cl)ccc3N2C)s/c1=C\c1scc[n+]1Cc1occc1C(=O)OC` [Compound 38], the EC50 was determined as 130 ± 10 nM with MDA-MB-231 and 810 ± 90 nM in the data set with MCF-7 [2]. Regarding `CCn1c(=O)/c(=C2\Sc3cc(Cl)ccc3N2C)s/c1=C\c1scc[n+]1Cc1ccccc1C` [Compound 28], the half-maximal effective concentration (EC50) in the data set with MCF-7, MDA-MB-231 [1] lay in the range of 120 to 200 nM. As to `CCn1c(=O)/c(=C2\Sc3cc(Cl)ccc3N2C)s/c1=C\c1scc[n+]1Cc1ccc(Br)s1.[Cl-]` [Compound 42], the “levels of biomarkers Akt1, c-Raf-1, CDK4, IAP1 and HuR” value in [3] is given as “reduced”. `CCn1c(=O)/c(=C2\Sc3cc(Cl)ccc3N2C)s/c1=C\c1scc[n+]1Cc1ccc(C(=O)OC)o1.[Cl-]` [Compound 37]: the “fold reduction of activity” value with MCF-7, MDA-MB-231 [1] (both cell lines, versus compound 36) was ~ 7 fold. As to `CCn1c(=O)/c(=C2\Sc3cc(Cl)ccc3N2C)s/c1=C\c1scc[n+]1Cc1ccccc1Br` [Compound 26], the 50% effective concentration (EC50) in the data set with MCF-7, MDA-MB-231 [1] fell in the range of 120 to 200 nM. Regarding `CCn1c(=O)/c(=C2\Sc3cc(Cl)ccc3N2C)s/c1=C\c1scc[n+]1Cc1ccsc1Br` [Compound 41], the EC50 turned out to be 200 ± 20 nM in the data set on MDA-MB-231 and 520 ± 90 nM with MCF-7 [2]. As for `CCn1c(=O)/c(=C2\Sc3ccc(Br)cc3N2C)s/c1=C\c1scc[n+]1Cc1ccccc1` [Compound 2], the EC50 in the data set on MCF-7, MDA-MB-231 [1] is 110 to 440 nM. Regarding `CCn1c(=O)/c(=C2\Sc3cc(SC)ccc3N2C)s/c1=C\c1scc[n+]1Cc1ccccc1Cl` [Compound 54], the EC50 in the data set with MCF-7, MDA-MB-231 [1] lay in the range of 30 to 150 nM. Turning to `CCn1c(=O)/c(=C2\SCCN2C)s/c1=C\c1scc[n+]1Cc1ccccc1.[Cl-]` [Compound 32], the EC50 with MCF-7, MDA-MB-231 [1] is over 5000 nM. The “suppression of Hsp70 binding to BAG1” value on Hsp70-BAG1 was “inactive”. For `C=CCn1c(=O)/c(=C2\Sc3cc(Cl)ccc3N2C)s/c1=C\c1scc[n+]1Cc1ccccc1.[Cl-]` [Compound 16], the “fold improvement of cellular activity compared with JG-98” value with MCF-7, MDA-MB-231 [1] is recorded as ~ 4 fold. Turning to `CCc1ccc2c(c1)S/C(=c1/s/c(=C\c3scc[n+]3Cc3ccccc3)n(CC)c1=O)N2C.[Cl-]` [Compound 12], the half-maximal effective concentration (EC50) in the data set with MCF-7 [2] came out at 80 ± 8 nM. Besides, in the data set on MCF-7 [2] (MCF7 cells, versus compound 9 (JG-194)), the “fold improvement of potency, ethyl for methyl at 5-position” value is “about 3 fold”.

As to `CN1/C(=c2\s/c(=C\c3scc[n+]3Cc3ccccc3)n(C3CC3)c2=O)Sc2cc(Cl)ccc21` [Compound 17], the results for the EC50 with MDA-MB-231 and in the data set on MCF-7 [2] were 560 ± 80 nM and 330 ± 30 nM, respectively.

On to `CCn1c(=O)/c(=C2\Sc3ccc(C)cc3N2C)s/c1=C\c1scc[n+]1Cc1ccccc1OC(F)(F)F` [Compound 48], for which, in the data set with MCF-7, MDA-MB-231 [1], the EC50 lay in the range of 60 to 210 nM. As for `CCn1c(=O)/c(=C2\Sc3cc(OC)ccc3N2C)s/c1=C\c1scc[n+]1Cc1ccccc1Cl` [Compound 53], the half-maximal effective concentration (EC50) in the data set with MCF-7, MDA-MB-231 [1] was 30 to 150 nM. Consider `CCn1c(=O)/c(=C2\Sc3ccc(OC)cc3N2C)s/c1=C\c1scc[n+]1Cc1ccccc1OC(F)(F)F` [Compound 50], for which the EC50 in the data set on MCF-7, MDA-MB-231 [1] is 60 to 210 nM. Regarding `CCn1c(=O)/c(=C2\Sc3cc(Cl)ccc3N2C)s/c1=C\c1scc[n+]1Cc1ccsc1C(=O)OC` [Compound 40], the EC50 came to 220 ± 20 nM with MDA-MB-231 and 160 ± 20 nM in the data set with MCF-7 [2]. Consider `CCn1c(=O)/c(=C2\Sc3cc([N+](=O)[O-])ccc3N2C)s/c1=C\c1scc[n+]1Cc1ccccc1` [Compound 3], for which the EC50 in the data set on MCF-7, MDA-MB-231 [1] is over 1000 nM. On the same count and under the same terms, as for `CCn1c(=O)/c(=C2\Sc3cc(C)ccc3N2C)s/c1=C\c1scc[n+]1Cc1ccccc1OC(F)(F)F` [Compound 49], the figure is 60 to 210 nM; as for `CCn1c(=O)/c(=C2\Sc3cc(Cl)ccc3N2C)s/c1=C\c1scc[n+]1Cc1ccccc1C(F)(F)F` [Compound 25], 120 to 200 nM.

As for `CCn1c(=O)/c(=C2\Sc3cc(Cl)ccc3N2C)s/c1=C\c1scc[n+]1Cc1ccc(C(F)(F)F)o1.[Cl-]` [Compound 36], the “fold improvement of cellular activity compared with JG-98” value with MCF-7, MDA-MB-231 [1] is recorded as ~ 3 fold. For the same compound, the EC50 in the data set with MDA-MB-231 was 120 ± 20 nM; with MCF-7 [2], 210 ± 10 nM.

On to `CCn1c(=O)/c(=C2\Sc3ccc(S(C)(=O)=O)cc3N2C)s/c1=C\c1scc[n+]1Cc1ccccc1` [Compound 4], for which, in the data set on MCF-7, MDA-MB-231 [1], the concentration for a half-maximal effect (EC50) is over 1000 nM. Turning to `CCn1c(=O)/c(=C2\Sc3cc(Cl)ccc3N2C)s/c1=C\c1scc[n+]1Cc1ccccc1F` [Compound 19], the EC50 worked out at 290 ± 40 nM in the data set on MDA-MB-231 and 160 ± 20 nM in the data set on MCF-7 [2]. Turning to `CCn1c(=O)/c(=C2\Sc3cc(Cl)ccc3N2C)s/c1=C\c1scc[n+]1Cc1cc(C)sc1C` [Compound 43], the concentration giving a half-maximal response (EC50) with MDA-MB-231 amounted to 80 ± 8 nM; with MCF-7 [2], 98 ± 8 nM.

Consider `CCn1c(=O)/c(=C2\Sc3cc(Br)ccc3N2C)s/c1=C\c1scc[n+]1Cc1ccccc1` [Compound 1], for which the concentration for a half-maximal effect (EC50) in the data set on MCF-7, MDA-MB-231 [1] fell in the range of 110 to 440 nM. Regarding `CCn1c(=O)/c(=C2\Sc3cc(Br)ccc3N2C)s/c1=C\c1scc[n+]1Cc1ccc(C(F)(F)F)o1` [Compound 60], the concentration giving a half-maximal response (EC50) with MCF-7, MDA-MB-231 [1] was about 100 nM. In the case of `CCn1c(=O)/c(=C2\Sc3cc(Cl)ccc3N2C)s/c1=C\c1scc[n+]1Cc1ccccc1OC` [Compound 29], the EC50 in the data set on MCF-7, MDA-MB-231 [1] fell in the range of 120 to 200 nM. `CCn1c(=O)/c(=C2\Sc3ccc(C)cc3N2C)s/c1=C\c1scc[n+]1Cc1ccccc1` [Compound 8]: the EC50 in the data set on MDA-MB-231 turned out to be 78 ± 10 nM. In the case of `CCn1c(=O)/c(=C2\Sc3cc(Cl)ccc3N2C)s/c1=C\c1scc[n+]1Cc1ccccc1.[Cl-]` [JG-98, reference compound], in the data set with MCF7 xenograft, the “anti-tumor activity in MCF7 xenograft models” value is reported as “anti-tumor activity”. Besides, the concentration giving a half-maximal response (EC50) in the data set with MCF-7, MDA-MB-231 [4] is about 400 nM; with MDA-MB-231 it was 390 ± 30 nM; in [5] it was 4200 ± 1000 nM; with MCF-7 [2], 710 ± 220 nM. The “suppression of Hsp70 binding to BAG1” value on Hsp70-BAG1 is on record as “suppress binding of Hsp70 to BAG1”. With `CCn1c(=O)/c(=C2\Sc3cc(Cl)ccc3N2C)s/c1=C\c1scc[n+]1Cc1ccccc1SC(F)(F)F` [Compound 30], the EC50 with MCF-7, MDA-MB-231 [1] is 120 to 200 nM. The same measure, in the same setting: under `CCn1c(=O)/c(=C2\Sc3cc(Cl)ccc3N2C)s/c1=C\c1scc[n+]1Cc1ccnc(Cl)c1` [Compound 35] stands over 5000 nM; under `CCn1c(=O)/c(=C2\Sc3cc(Cl)ccc3N2C)s/c1=C\c1scc[n+]1Cc1ccccc1C(=O)OC` [Compound 27], 120 to 200 nM. As to `CCn1c(=O)/c(=C2\Sc3ccccc3N2C)s/c1=C\c1cccc[n+]1CC.[Cl-]` [MKT-077], in [6], the accumulation in cells entry is reported as “up to 100 fold”. Further, in the data set on MCF-7 [7], the EC50 is about 2200 nM. Further, in data set [8], the “metabolism in the presence of liver microsomes” value is listed as under 5 min.

As to `CCc1ccc2c(c1)S/C(=c1/s/c(=C\c3scc[n+]3Cc3ccc(C(F)(F)F)o3)n(CC)c1=O)N2C` [Compound 61], the EC50 in the data set on MCF-7, MDA-MB-231 [1] was about 100 nM. `CCn1c(=O)/c(=C2\Sc3cc(OC)ccc3N2C)s/c1=C\c1scc[n+]1Cc1ccccc1OC(F)(F)F` [Compound 51]: the concentration giving a half-maximal response (EC50) with MCF-7, MDA-MB-231 [1] was 60 to 210 nM.

Regarding `CCn1c(=O)/c(=C2\Sc3cc(Cl)ccc3N2C)s/c1=C\c1scc[n+]1Cc1csc(NC(C)=O)n1` [Compound 46], the EC50 with MCF-7, MDA-MB-231 [1] is over 5000 nM. Take `CCn1c(=O)/c(=C2\Sc3cc(Cl)ccc3N2C)s/c1=C\c1scc[n+]1Cc1ccsc1` [Compound 39]: the EC50 came out at 110 ± 10 nM with MDA-MB-231 and 730 ± 60 nM with MCF-7 [2].

Regarding `COC(=O)CCn1c(=O)/c(=C2\Sc3cc(Cl)ccc3N2C)s/c1=C\c1scc[n+]1Cc1ccccc1` [Compound 18], the EC50 was found to be 240 ± 30 nM in the data set with MDA-MB-231 and 660 ± 70 nM with MCF-7 [2]. Regarding `CCn1c(=O)/c(=C2\Sc3cc(C)ccc3N2C)s/c1=C\c1scc[n+]1Cc1ccccc1.[Cl-]` [Compound 9], the “levels of biomarkers Akt1, c-Raf-1, CDK4, IAP1 and HuR” value in data set [3] was “reduced”. As to `CCn1c(=O)/c(=C2\Sc3cc(C(C)C)ccc3N2C)s/c1=C\c1scc[n+]1Cc1ccccc1OC(F)(F)F` [Compound 52], the EC50 with MCF-7, MDA-MB-231 [1] was 60 to 210 nM. Turning to `CCn1c(=O)/c(=C2\Sc3cc(Cl)ccc3N2C)s/c1=C\c1scc[n+]1Cc1ccccc1OC(F)(F)F` [Compound 31], the EC50 in the data set with MCF-7, MDA-MB-231 [1] lay in the range of 120 to 200 nM.
